Reference: ChEMBL document CHEMBL1201862, “PubChem BioAssay data set” (2004)
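Cultured in 96-well plates, cells were exposed to test compound for 48 hours across five concentrations. At the GI50, growth is halved.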 The source made the active and inactive calls. Rule as the data show it: active = GI50 up to about 1.1 µM and inactive = higher.

Columns and labels:
Assay in all cases: NCI anticancer screen, dose series, 48 h
HCT-116 = test system: HCT-116
A549 = test system: A549
UO-31 = test system: UO-31
SN12C = test system: SN12C
OVCAR-8 = test system: OVCAR-8
SNB-19 = test system: SNB-19
NCI/ADR-RES = test system: NCI/ADR-RES
U-251 = test system: U-251
SW-620 = test system: SW-620
Malme-3M = test system: Malme-3M
XF498 = test system: XF498
HCC 2998 = test system: HCC 2998
SK-MEL-5 = test system: SK-MEL-5
EKVX = test system: EKVX
OVCAR-5 = test system: OVCAR-5
HCT-15 = test system: HCT-15
DMS-273 = test system: DMS-273
A498 = test system: A498
DMS-114 = test system: DMS-114
SF-295 = test system: SF-295
KM-20L2 = test system: KM-20L2
IGROV-1 = test system: IGROV-1
OVCAR-3 = test system: OVCAR-3
CAKI-1 = test system: CAKI-1
UACC-257 = test system: UACC-257
HL-60 = test system: HL-60
SF-268 = test system: SF-268
RXF 393 = test system: RXF 393
OVCAR-4 = test system: OVCAR-4
NCI-H23 = test system: NCI-H23
UACC-62 = test system: UACC-62
LOX IMVI = test system: LOX IMVI
SNB-75 = test system: SNB-75
HOP-18 = test system: HOP-18
SNB-78 = test system: SNB-78
MOLT-4 = test system: MOLT-4
CCRF-CEM = test system: CCRF-CEM
SK-MEL-2 = test system: SK-MEL-2
DLD-1 = test system: DLD-1
COLO 205 = test system: COLO 205
HT-29 = test system: HT-29
HOP-92 = test system: HOP-92
SF-539 = test system: SF-539
NCI-H460 = test system: NCI-H460
MCF7 = test system: MCF7
SK-MEL-28 = test system: SK-MEL-28
K562 = test system: K562
NCI-H226 = test system: NCI-H226
M19-MEL = test system: M19-MEL
MDA-MB-435 = test system: MDA-MB-435
SK-OV-3 = test system: SK-OV-3
SR = test system: SR
786-0 = test system: 786-0
KM12 = test system: KM12
PC-3 = test system: PC-3
DU-145 = test system: DU-145
ACHN = test system: ACHN
HOP-62 = test system: HOP-62
T47D = test system: T47D
MDA-N = test system: MDA-N
RPMI-8226 = test system: RPMI-8226
LXFL 529 = test system: LXFL 529
Hs-578T = test system: Hs-578T
TK-10 = test system: TK-10
M14 = test system: M14
BT-549 = test system: BT-549
NCI-H522 = test system: NCI-H522

O=C1c2cccc3cc4ccccc4c(c23)C(=O)N1CCNCCNCCNCCN1C(=O)c2cccc3cc4ccccc4c(c23)C1=O
GI50 (HCT-116): < 10 nM (active)
GI50 (A549): < 10 nM (active)
GI50 (UO-31): 33.5 nM (active)
GI50 (SN12C): < 27 nM (active)
GI50 (OVCAR-8): < 10 nM (active)
GI50 (SNB-19): < 10 nM (active)
GI50 (NCI/ADR-RES): < 13.6 nM (active)
GI50 (U-251): < 10 nM (active)
GI50 (SW-620): < 10 nM (active)
GI50 (Malme-3M): 126 nM (active)
GI50 (XF498): 13.1 nM (active)
GI50 (HCC 2998): < 13.4 nM (active)
GI50 (SK-MEL-5): 24.3 nM (active)
GI50 (EKVX): 129 nM (active)
GI50 (OVCAR-5): 158 nM (active)
GI50 (HCT-15): < 10 nM
GI50 (DMS-273): < 10 nM (active)
GI50 (A498): 190 nM (active)
GI50 (DMS-114): 11.4 nM (active)
GI50 (SF-295): < 10 nM (active)
GI50 (KM-20L2): < 13.9 nM (active)
GI50 (IGROV-1): < 10 nM (active)
GI50 (OVCAR-3): < 33 nM (active)
GI50 (CAKI-1): < 10 nM (active)
GI50 (UACC-257): 201 nM (active)
GI50 (HL-60): < 10 nM (active)
GI50 (SF-268): < 10 nM (active)
GI50 (RXF 393): < 10 nM (active)
GI50 (OVCAR-4): < 10 nM (active)
GI50 (NCI-H23): < 10 nM (active)
GI50 (UACC-62): < 10 nM (active)
GI50 (LOX IMVI): < 10 nM (active)
GI50 (SNB-75): < 14.1 nM (active)
GI50 (HOP-18): 40.5 nM (active)
GI50 (SNB-78): < 10 nM (active)
GI50 (MOLT-4): < 10 nM (active)
GI50 (CCRF-CEM): < 10 nM (active)
GI50 (SK-MEL-2): 119 nM (active)
GI50 (DLD-1): < 14 nM (active)
GI50 (COLO 205): < 10 nM (active)
GI50 (HT-29): < 10 nM (active)
GI50 (HOP-92): 11.1 nM (active)
GI50 (SF-539): 24.3 nM (active)
GI50 (NCI-H460): < 10 nM (active)
GI50 (MCF7): < 10 nM (active)
GI50 (SK-MEL-28): < 10 nM (active)
GI50 (K562): < 10 nM (active)
GI50 (NCI-H226): 33600 nM (inactive)
GI50 (M19-MEL): < 10 nM (active)

O=C1C=CC(=O)c2c1c1c(c3c2C2c4ccccc4C3c3ccccc32)C2c3ccccc3C1c1ccccc12
GI50 (MDA-MB-435): 1750 nM (inactive)
GI50 (HCT-116): 1560 nM (inactive)
GI50 (A549): 8690 nM (inactive)
GI50 (UO-31): 2040 nM (inactive)
GI50 (SN12C): 3670 nM (inactive)
GI50 (OVCAR-8): 1530 nM (inactive)
GI50 (SNB-19): 16200 nM (inactive)
GI50 (NCI/ADR-RES): 5040 nM (inactive)
GI50 (U-251): 8710 nM (inactive)
GI50 (SW-620): 914 nM (active)
GI50 (Malme-3M): 1600 nM (inactive)
GI50 (XF498): 1750 nM (inactive)
GI50 (SK-OV-3): 15000 nM (inactive)
GI50 (HCC 2998): 6920 nM (inactive)
GI50 (SR): 1950 nM (inactive)
GI50 (SK-MEL-5): 3300 nM (inactive)
GI50 (EKVX): 3660 nM (inactive)
GI50 (OVCAR-5): 6550 nM (inactive)
GI50 (HCT-15): 1540 nM
GI50 (DMS-273): 2110 nM (inactive)
GI50 (786-0): 1450 nM (inactive)
GI50 (A498): 2900 nM (inactive)
GI50 (DMS-114): 1950 nM (inactive)
GI50 (SF-295): 14900 nM (inactive)
GI50 (KM-20L2): 4460 nM (inactive)
GI50 (IGROV-1): 7060 nM (inactive)
GI50 (OVCAR-3): 1770 nM (inactive)
GI50 (KM12): 12700 nM (inactive)
GI50 (CAKI-1): 1730 nM (inactive)
GI50 (PC-3): 1740 nM (inactive)
GI50 (UACC-257): 1850 nM (inactive)
GI50 (DU-145): 15100 nM (inactive)
GI50 (HL-60): 1540 nM (inactive)
GI50 (SF-268): 7640 nM (inactive)
GI50 (ACHN): 1730 nM (inactive)
GI50 (HOP-62): 19500 nM (inactive)
GI50 (RXF 393): 1590 nM (inactive)
GI50 (T47D): 1410 nM (inactive)
GI50 (OVCAR-4): 2040 nM (inactive)
GI50 (NCI-H23): 2720 nM (inactive)
GI50 (MDA-N): 1550 nM (inactive)
GI50 (RPMI-8226): 1790 nM (inactive)
GI50 (LXFL 529): 1080 nM (active)
GI50 (UACC-62): 2070 nM (inactive)
GI50 (LOX IMVI): 1640 nM (inactive)
GI50 (Hs-578T): 4290 nM (inactive)
GI50 (SNB-75): 10200 nM (inactive)
GI50 (SNB-78): 1810 nM (inactive)
GI50 (MOLT-4): 836 nM (active)
GI50 (TK-10): 1870 nM (inactive)
GI50 (CCRF-CEM): 368 nM (active)
GI50 (M14): 1700 nM (inactive)
GI50 (BT-549): 3260 nM (inactive)
GI50 (SK-MEL-2): 1890 nM (inactive)
GI50 (DLD-1): 982 nM (active)
GI50 (COLO 205): 1500 nM (inactive)
GI50 (HT-29): 2110 nM (inactive)
GI50 (HOP-92): 1080 nM (active)
GI50 (SF-539): 5150 nM (inactive)
GI50 (NCI-H460): 13200 nM (inactive)
GI50 (MCF7): 1270 nM (inactive)
GI50 (SK-MEL-28): 1420 nM (inactive)
GI50 (K562): 3690 nM (inactive)
GI50 (NCI-H226): 4710 nM (inactive)
GI50 (M19-MEL): 1980 nM (inactive)
GI50 (NCI-H522): 515 nM (active)
